Converted amounts (≈) assume the structure as drawn. Where two headings read alike, the source gives them in different places.
What was measured:
[1] = test system: Bluegill (Lepomis macrochirus); settings: in vivo; cited from earlier work
Ceriodaphnia dubia = experiment: whole plant or invertebrate; settings: read-out: EC 50, effective concentration for 50% survival

Row | Compound | toxicity compared with the parent compound chlorpyriphos [1] | EC50 (Ceriodaphnia dubia; 24 h) [ng/mL] | EC50 (Ceriodaphnia dubia; 48 h) [ng/mL]
1 | CCOP(O)(=S)OCC [diethyl thiophosphoric acid] | considerably less toxic than the parent compound | – | –
2 | CCOP(=S)(OCC)Oc1cc(C)nc(C(C)C)n1 [Untreated diazinon, diazinon] | – | 0.389 (≈ 1.28 nM) | 0.195 (≈ 0.641 nM)

Reference: patent US9796990B2 (priority 2011, dated 2017)
